Legend:
[1] = tested on: immortalized human sebocyte cell line, SZ95; assay: In vitro assay of inhibition of lipid synthesis; assay type: cell-based; details: 48 h, SZ95 sebocytes
Summary of the method: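 Human SZ95 sebocytes were preincubated with compound for 30 min, then stimulated with 75 μM arachidonic acid for 48 h at 37 °C. Neutral lipids were stained with AdipoRed and read by fluorescence (ex 485/em 535). % inhibition was normalized between AA-stimulated and unstimulated cells.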

sebocytes = details: Hunt D. et al. J Invest Dermatol. 2017; cited from earlier work
sebaceous gland activity = details: Hunt D. et al. J Invest Dermatol. 2017; cited from earlier work
[2] = 75 μM arachidonic acid, AdipoRed, Table 2, finer classes for compounds with IC50 less than 250 nM
[3] = lipid synthesis induced by 75 μM arachidonic acid, AdipoRed fluorescence, Table 1

Row | SMILES | IC50 [1, 2] [nM] | IC50 [1, 3] [nM] | potency inhibiting sebum production by sebocytes (sebocytes) | activity in an in vivo model of sebaceous gland activity (sebaceous gland activity)
1 | CCCCCCCCCCCCCCCCc1cc(F)c(C(=O)O)[nH]1 [Example 123, 3-Fluoro-5-hexadecyl-1H-pyrrole-2-carboxylic acid] | 50 to 100 | < 250 | – | –
2 | CCCCCCCCCCCCCCCCCc1cc(F)c(C(=O)O)[nH]1 [Example 124, 3-Fluoro-5-heptadecyl-1H-pyrrole-2-carboxylic acid] | – | < 250 | – | –
3 | CCCCCCCCCCCCCCCCCCc1cc(F)c(C(=O)O)[nH]1 [Example 125, 3-Fluoro-5-octadecyl-1H-pyrrole-2-carboxylic acid] | – | < 250 | – | –
4 | CCCCCCCCCCCCCCCCCCCc1cc(F)c(C(=O)O)[nH]1 [Example 126, 3-Fluoro-5-nonadecyl-1H-pyrrole-2-carboxylic acid] | – | < 250 | – | –
5 | CCCCCCCCCCC(C)(C)Cc1cc(Cl)c(C(=O)O)[nH]1 [Example 127, 3-Chloro-5-(2,2-dimethyldodecyl)-1H-pyrrole-2-carboxylic acid] | < 50 | 250 to 1000 | – | –
6 | CCCCCCCCCC(F)(F)CCc1cc(Cl)c(C(=O)O)[nH]1 [Example 128, 3-Chloro-5-(3,3-difluorododecyl)-1H-pyrrole-2-carboxylic acid] | < 50 | 250 to 1000 | – | –
7 | CCCCCCCCCCCCc1cc(C#N)c(C(=O)O)[nH]1 [Example 129, 3-Cyano-5-dodecyl-1H-pyrrole-2-carboxylic acid] | – | 1000 to 5000 | – | –
8 | CCCCCCCCCCCCc1cc(Cl)c(C(=O)O)n1C [Example 130, 3-Chloro-5-dodecyl-1-methyl-1H-pyrrole-2-carboxylic acid] | 100 to 250 | > 5000 | – | –
9 | O=C(O)c1[nH]c(CCCCCCCCCCCCCCF)cc1F [Example 131, 3-Fluoro-5-(14-fluorotetradecyl)-1H-pyrrole-2-carboxylic acid] | 100 to 250 | < 250 | – | –
10 | CCCCCCCCCCCCCCCCc1c[nH]c(C(=O)O)c1F [Example 132, 3-Fluoro-4-hexadecyl-1H-pyrrole-2-carboxylic acid] | < 50 | < 250 | – | –
11 | CCCCCCCCCCCCCCOc1ccc(C(=O)OCC(=O)N(C)CC(=O)OCC)o1 [Olumacostat Glasaretil] | – | – | low potency | poor activity

Source: patent publication US20210220328A1, “PYRROLE DERIVATIVES AS ACC INHIBITORS” (Almirall, S.A., priority 2017, published 2021)
